In patent US10752609B2, “GSK-3 inhibitors” (priority 2016, dated 2020):
Read-outs that look alike come from different tables or passages of the source.

Columns and labels:
GSK3β = GSK3β (Homo sapiens, UniProt P49841); test: GSK3β kinase assay (Caliper LabChip3000 mobility shift, fluoresceinated peptide substrate); assay type: biochemical
pTau = pTau assay (no method described); assay type: cell-based
GSK3α = GSK3α (Homo sapiens, UniProt P49840); test: GSK3α kinase assay (Caliper LabChip3000 mobility shift, fluoresceinated peptide substrate)
[1] = 250 pM enzyme, 20 uM ATP, 1.5 uM peptide, 20 hours room temperature, first value of cell GSK3β/GSK3α, read-out: GSK3β (nM), IC50

Sequence of GSK3α (P49840 whole entry, species assumed): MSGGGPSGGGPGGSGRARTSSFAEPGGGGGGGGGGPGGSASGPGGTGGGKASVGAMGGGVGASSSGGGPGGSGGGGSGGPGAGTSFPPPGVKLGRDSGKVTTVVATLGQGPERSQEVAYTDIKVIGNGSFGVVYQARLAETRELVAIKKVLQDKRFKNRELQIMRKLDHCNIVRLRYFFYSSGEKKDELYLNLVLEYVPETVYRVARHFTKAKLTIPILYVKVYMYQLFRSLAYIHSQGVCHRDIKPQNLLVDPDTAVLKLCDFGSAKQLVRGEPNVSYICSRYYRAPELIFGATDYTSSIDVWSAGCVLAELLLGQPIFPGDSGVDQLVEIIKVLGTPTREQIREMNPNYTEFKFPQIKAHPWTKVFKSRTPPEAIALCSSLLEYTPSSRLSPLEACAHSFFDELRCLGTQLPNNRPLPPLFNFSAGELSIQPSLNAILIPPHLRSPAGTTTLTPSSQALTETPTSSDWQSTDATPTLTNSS
Sequence of GSK3β (P49841 whole entry, species assumed): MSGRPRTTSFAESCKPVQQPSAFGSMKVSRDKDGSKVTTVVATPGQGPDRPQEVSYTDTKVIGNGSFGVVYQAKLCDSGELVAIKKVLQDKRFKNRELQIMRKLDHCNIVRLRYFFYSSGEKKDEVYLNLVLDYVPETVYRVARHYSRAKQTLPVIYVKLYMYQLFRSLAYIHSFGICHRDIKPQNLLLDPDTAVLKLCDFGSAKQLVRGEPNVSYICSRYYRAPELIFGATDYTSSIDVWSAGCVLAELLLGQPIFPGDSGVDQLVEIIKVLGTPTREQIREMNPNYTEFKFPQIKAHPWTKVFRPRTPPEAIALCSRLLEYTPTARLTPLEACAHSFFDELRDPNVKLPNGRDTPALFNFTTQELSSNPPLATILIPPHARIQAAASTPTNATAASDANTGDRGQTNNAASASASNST

SMILES	IC50 (GSK3β; [1]) [nM]	IC50 (pTau) [nM]	IC50 (GSK3α) [nM]	IC50 (GSK3β) [nM]
O=C(Nc1cnccc1C1CCOCC1)c1ccnc(Nc2ccc(OC(F)F)nc2)n1 [Example 80, 2-((6-(Difluoromethoxy)pyridin-3-yl)amino)-N-(4-(tetrahydro-2H-pyran-4-yl)pyridin-3-yl)pyrimidine-4-carboxamide]	2.4	86	0.65	
O=C(Nc1cnccc1CN1CCCC1)c1ccnc(Nc2ccc(OC(F)F)nc2)n1 [Example 81, 2-((6-(Difluoromethoxy)pyridin-3-yl)amino)-N-(4-(pyrrolidin-1-ylmethyl)pyridin-3-yl)pyrimidine-4-carboxamide]	9.8	520	6.6	
N#Cc1ccc(Nc2nccc(C(=O)Nc3cnccc3OCC(F)(F)F)n2)cn1 [Example 82, 2-((6-Cyanopyridin-3-yl)amino)-N-(4-(2,2,2-trifluoroethoxy)pyridin-3-yl)pyrimidine-4-carboxamide]	0.18	2.8	0.09	
Cc1ccc(Nc2nccc(C(=O)Nc3cnccc3OCC(F)(F)F)n2)cn1 [Example 83, 2-((6-Methylpyridin-3-yl)amino)-N-(4-(2,2,2-trifluoroethoxy)pyridin-3-yl)pyrimidine-4-carboxamide]	0.22	5.1	0.16	
O=C(Nc1cnccc1OCC(F)(F)F)c1ccnc(Nc2ccc(F)nc2)n1 [Example 84, 2-((6-Fluoropyridin-3-yl)amino)-N-(4-(2,2,2-trifluoroethoxy)pyridin-3-yl)pyrimidine-4-carboxamide]	0.24	4.8	0.11	
O=C(Nc1cnccc1OCC(F)(F)F)c1ccnc(NC2CCCOC2)n1 (stereo not drawn) [Example 85, 2-((Tetrahydro-2H-pyran-3-yl)amino)-N-(4-(2,2,2-trifluoroethoxy)pyridin-3-yl)pyrimidine-4-carboxamide]	0.51	17	0.41	
O=C(Nc1cnccc1-c1ccccc1)c1ccnc(Nc2ccc(F)nc2)n1 [Example 86, 2-((6-Fluoropyridin-3-yl)amino)-N-(4-phenylpyridin-3-yl)pyrimidine-4-carboxamide]	0.8	68	0.4	
CC(=O)Nc1ccc(Nc2nccc(C(=O)Nc3cnccc3-c3ccccc3)n2)cn1 [Example 87, 2-((6-Acetamidopyridin-3-yl)amino)-N-(4-phenylpyridin-3-yl)pyrimidine-4-carboxamide]	1.4	150	0.92	
O=C(Nc1cnccc1-c1ccccc1)c1ccnc(NC2CCOCC2)n1 [Example 88, N-(4-Phenylpyridin-3-yl)-2-((tetrahydro-2H-pyran-4-yl)amino)pyrimidine-4-carboxamide]	2.6	150	1.4	
Cc1ccc(Nc2nccc(C(=O)Nc3cnccc3-c3ccccc3)n2)cn1 [Example 89, 2-((6-Methylpyridin-3-yl)amino)-N-(4-phenylpyridin-3-yl)pyrimidine-4-carboxamide]	3	73	1.5	
CCn1nccc1Nc1nccc(C(=O)Nc2cnccc2-c2ccccc2)n1 [Example 90, 2-((1-Ethyl-1H-pyrazol-5-yl)amino)-N-(4-phenylpyridin-3-yl)pyrimidine-4-carboxamide]		120	2.2	3
O=C(Nc1cnccc1-c1ccccc1)c1ccnc(Nc2cncc3c2CCCC3)n1 [Example 91, N-(4-Phenylpyridin-3-yl)-2-((5,6,7,8-tetrahydroisoquinolin-4-yl)amino)pyrimidine-4-carboxamide]	3.5	270	2.3	
CCO[C@H]1COC[C@@H]1Nc1nccc(C(=O)Nc2cnccc2-c2ccccc2)n1 [Example 92, 2-(((3S,4R)-4-Ethoxytetrahydrofuran-3-yl)amino)-N-(4-phenylpyridin-3-yl)pyrimidine-4-carboxamide]	3.8	250	2.2	
CN(C)c1ccc(Nc2nccc(C(=O)Nc3cnccc3-c3ccccc3)n2)cn1 [Example 93, 2-((6-(Dimethylamino)pyridin-3-yl)amino)-N-(4-phenylpyridin-3-yl)pyrimidine-4-carboxamide]	4.3	390	3.1	
O=C(Nc1cnccc1-c1ccccc1)c1ccnc(NC2CCCOC2)n1 (stereo not drawn) [Example 94, N-(4-Phenylpyridin-3-yl)-2-((tetrahydro-2H-pyran-3-yl)amino)pyrimidine-4-carboxamide]	5.1	210	3.5	
Cc1cc(Nc2nccc(C(=O)Nc3cnccc3-c3ccccc3)n2)sn1 [Example 95, 2-((3-Methylisothiazol-5-yl)amino)-N-(4-phenylpyridin-3-yl)pyrimidine-4-carboxamide]	5.7	78	0.7	
CN(C)CCOc1ccc(Nc2nccc(C(=O)Nc3cnccc3-c3ccccc3)n2)cn1 [Example 96, 2-((6-(2-(Dimethylamino)ethoxy)pyridin-3-yl)amino)-N-(4-phenylpyridin-3-yl)pyrimidine-4-carboxamide]	18	900	11	
Cn1nc(C2CC2)cc1Nc1nccc(C(=O)Nc2cnccc2-c2ccccc2)n1 [Example 97, 2-((3-Cyclopropyl-1-methyl-1H-pyrazol-5-yl)amino)-N-(4-phenylpyridin-3-yl)pyrimidine-4-carboxamide]	29	870	30	
Cn1ccc(Nc2nccc(C(=O)Nc3cnccc3-c3ccccc3)n2)n1 [Example 98, 2-((1-Methyl-1H-pyrazol-3-yl)amino)-N-(4-phenylpyridin-3-yl)pyrimidine-4-carboxamide]	46	2600	37	
Cn1cc(Nc2nccc(C(=O)Nc3cnccc3-c3ccccc3)n2)nn1 [Example 99, 2-((1-Methyl-1H-1,2,3-triazol-4-yl)amino)-N-(4-phenylpyridin-3-yl)pyrimidine-4-carboxamide]	78	10000	190	
CC(C)CNc1ccc(Nc2nccc(C(=O)Nc3cnccc3-c3ccccc3)n2)cn1 [Example 100, 2-((6-(Isobutylamino)pyridin-3-yl)amino)-N-(4-phenylpyridin-3-yl)pyrimidine-4-carboxamide]	93	10000	65	
O=C(Nc1cnccc1-c1ccccc1)c1ccnc(Nc2cnns2)n1 [Example 101, 2-((1,2,3-Thiadiazol-5-yl)amino)-N-(4-phenylpyridin-3-yl)pyrimidine-4-carboxamide]	100	9000	42	
Cn1cnc(Nc2nccc(C(=O)Nc3cnccc3-c3ccccc3)n2)c1 [Example 102, 2-((1-Methyl-1H-imidazol-4-yl)amino)-N-(4-phenylpyridin-3-yl)pyrimidine-4-carboxamide]	260	10000	170	
Cc1ccc(Nc2nccc(C(=O)Nc3cncc(-c4ccccc4F)c3)n2)cn1 [Example 103, N-(5-(2-Fluorophenyl)pyridin-3-yl)-2-((6-methylpyridin-3-yl)amino)pyrimidine-4-carboxamide]	3.1	510	1.3	
